# According to patent publication US7727550B2, “Biologically active native biomatrix composition” (The UAB Research Foundation, priority 2003, dated 2010):
# Legend:
# [1] = system: human umbilical vascular endothelial cells (HUVEC); test: HUVEC culture on two-dimensional biomatrix environments; format: cell-based; settings: FGF 15 ng/ml, two-dimensional HuBiogel matrix
# Method: […] The specific morphological changes in the monolayer HUVEC cultures was examined after 72 hrs incubation on each biomatrix environment. HUVECs cultured on plastic or purified collagen I grew poorly (<60% viability). […] Tubular capillary formation is confirmed by cross-sectional electron microscopy showing distinct lumen.
# HUVEC = HUVEC migration and differentiation in three-dimensional HuBiogel disc culture system; format: cell-based, human; settings: FGF 60 ng/ml added day 0, 5 mg/ml HuBiogel disc, 50 um pore size
# Method: Endothelial cells were cultured under standard conditions. On day 0, FGF (60 ng/ml) was added to the culture and incubation continued. At the indicated times, cell morphology was examined and documented. […] There is no differentiation of the cells until the day 5-day 7 time period. After day 7, obvious differentiation as indicated by sprout formation/capillary formation can be seen. […] Such a temporally discrete timing of the activation migration and differentiation steps make the use of this system ideal for studying the biochemical mechanisms involved in each step, as well as isolating potential inhibitors of the mechanisms identified. This time dependent, temporally isolated sequence of events is in contrast to that seen with Matrigel, where differentiation events occur rapidly in the absence of added growth factors and/or growth stimulants.
# [2] = system: mesenchymal stem cells (MSC); test: Mesenchymal stem cell culture on HuBiogel; format: cell-based; settings: NGF 15 ng/ml
# Method: Other cell type may also be grown on HuBiogel™ matrices, with the above being exemplary in nature only. Theses other cell types include neurons, hepatocytes, sertoli cells and the like. For Example, FIGS. 11A and B show glioma cells cultured on HuBiogel™ containing matrices. […] FIGS. 12A and B show mesenchymal stem cells (MSC) cells cultured on HuBiogel™ in the presence (FIG. 12B) and absence of 15 ng/ml NGF (FIG. 12A).
Substance,HUVEC differentiation on HuBiogel enriched with growth factor [1],"growth factor induced HUVEC activation, migration and differentiation (HUVEC)",neuronal differentiation of MSC on HuBiogel [2]
"FGF: fibroblast growth factor, purified angiogenic factor added to HuBiogel",rapid formation of tubule-like structures,"induced a time dependent series of cellular activation, migration and differentiation steps",–
NGF: nerve growth factor,–,–,neuronal differentiation occurred only in the presence of NGF
